Source: ChEMBL document CHEMBL2034879, “Discovery of SCH 900271, a Potent Nicotinic Acid Receptor Agonist for the Treatment of Dyslipidemia” (ACS Med Chem Lett, 2012)
One block for each molecule: values may come before it. The source made the active and inactive calls. The calls are words filed in the database; no cut-off is given here.

Legend:
[1] = tested on: Rattus norvegicus; assay: Antidyslipidemic activity in fasted Sprague-Dawley rat assessed as reduction in free fatty acid level in plasma at 1 mg/kg, po after 1 hr relative to vehicle-treated control; type: functional; parameters: scale not given: the % may be the effect or the level left
[2] = tested on: Canis familiaris; assay: Antidyslipidemic activity in fasted beagle dog assessed as reduction in free fatty acid level in plasma at 0.3 mg/kg, po after 1 hr relative to vehicle-treated control; type: functional, Canis lupus familiaris; parameters: scale not given: the % may be the effect or the level left
[3] = organism: Mus musculus; assay: Nephrotoxicity in CD1 mouse assessed as acute renal necrosis; type: toxicity, organism-based; settings: in vivo
[4] = target: Hydroxycarboxylic acid receptor 3 (Homo sapiens, UniProt P49019); assay: Agonist activity at human GPR109b; type: functional
Chain of Hydroxycarboxylic acid receptor 3 (P49019 whole entry): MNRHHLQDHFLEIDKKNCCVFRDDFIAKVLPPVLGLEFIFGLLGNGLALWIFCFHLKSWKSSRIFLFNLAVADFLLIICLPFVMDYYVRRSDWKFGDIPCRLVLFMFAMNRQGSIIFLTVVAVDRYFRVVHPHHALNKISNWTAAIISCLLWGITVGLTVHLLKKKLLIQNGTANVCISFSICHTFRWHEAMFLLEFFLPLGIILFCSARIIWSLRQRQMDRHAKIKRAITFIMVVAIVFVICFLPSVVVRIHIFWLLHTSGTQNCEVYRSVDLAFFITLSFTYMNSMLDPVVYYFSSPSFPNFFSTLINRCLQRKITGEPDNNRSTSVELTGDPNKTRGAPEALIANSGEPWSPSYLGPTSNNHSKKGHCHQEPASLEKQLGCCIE

[5] = organism: Rattus norvegicus; assay: Nephrotoxicity in rat assessed as increase in creatinine level; type: toxicity, organism-based; settings: in vivo
[6] = organism: Rattus norvegicus; assay: Nephrotoxicity in rat assessed as increase in serum blood urea nitrogen level; type: toxicity, organism-based; settings: in vivo
[7] = Agonist activity at dog GPR109a; type: functional, Canis lupus familiaris
[8] = tested on: Mus musculus; assay: Nephrotoxicity in CD1 mouse assessed as increase in serum blood urea nitrogen level at 100 mg/kg; type: toxicity, organism-based; parameters: dose 100 mg/kg; settings: in vivo
[9] = tested on: Rattus norvegicus; assay: Antidyslipidemic activity in fasted Sprague-Dawley rat assessed as reduction in triglyceride level in plasma at 1 mg/kg, po after 1 hr relative to vehicle-treated control; type: functional; parameters: scale not given: the % may be the effect or the level left
[10] = target: Hydroxycarboxylic acid receptor 2 (Rattus norvegicus, UniProt Q80Z39); assay: Agonist activity at rat GPR109a; type: functional
Chain of Hydroxycarboxylic acid receptor 2 (Rattus norvegicus, UniProt Q80Z39) (Q80Z39 whole entry): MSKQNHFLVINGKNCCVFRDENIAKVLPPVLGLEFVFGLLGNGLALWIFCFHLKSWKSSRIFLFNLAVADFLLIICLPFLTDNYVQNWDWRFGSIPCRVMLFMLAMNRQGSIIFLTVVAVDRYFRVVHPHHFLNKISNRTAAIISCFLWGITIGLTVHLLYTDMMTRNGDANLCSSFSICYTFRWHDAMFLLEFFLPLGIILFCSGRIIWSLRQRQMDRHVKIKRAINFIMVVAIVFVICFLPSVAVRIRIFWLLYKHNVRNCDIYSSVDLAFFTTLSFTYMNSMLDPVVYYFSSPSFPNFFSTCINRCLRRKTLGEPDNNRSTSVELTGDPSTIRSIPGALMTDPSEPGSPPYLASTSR

[11] = tested on: Mus musculus; assay: Nephrotoxicity in CD1 mouse assessed as increase in creatinine level at 100 mg/kg; type: toxicity, organism-based; parameters: dose 100 mg/kg; settings: in vivo
[12] = tested on: Canis familiaris; assay: Antidyslipidemic activity in po dosed fasted beagle dog assessed as reduction in free fatty acid level in plasma relative to vehicle-treated control; type: functional, organism-based; settings: Canis lupus familiaris
[13] = target: Hydroxycarboxylic acid receptor 2 (Mus musculus, UniProt Q9EP66); assay: Agonist activity at mouse GPR109a; type: functional
Chain of Hydroxycarboxylic acid receptor 2 (Mus musculus, UniProt Q9EP66) (Q9EP66 whole entry): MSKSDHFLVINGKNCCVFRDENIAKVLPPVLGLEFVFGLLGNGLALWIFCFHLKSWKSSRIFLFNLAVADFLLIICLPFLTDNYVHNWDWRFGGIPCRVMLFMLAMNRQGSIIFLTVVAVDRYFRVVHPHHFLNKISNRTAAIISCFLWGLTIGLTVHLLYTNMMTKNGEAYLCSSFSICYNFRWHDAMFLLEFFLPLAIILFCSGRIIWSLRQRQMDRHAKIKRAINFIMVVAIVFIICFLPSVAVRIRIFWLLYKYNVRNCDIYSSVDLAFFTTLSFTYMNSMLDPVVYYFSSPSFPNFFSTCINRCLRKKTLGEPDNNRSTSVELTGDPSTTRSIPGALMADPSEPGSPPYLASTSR

[14] = tested on: Canis familiaris; assay: Toxicity in beagle dog assessed as flushing at 3 mg/kg, po; type: organism-based, Canis lupus familiaris; parameters: dose 3 mg/kg, route oral; settings: in vivo
[15] = tested on: Canis familiaris; assay: Antidyslipidemic activity in po dosed fasted beagle dog assessed as reduction in free fatty acid level in plasma after 4 hr relative to vehicle-treated control; type: functional, organism-based; settings: Canis lupus familiaris
[16] = tested on: Canis familiaris; assay: Antidyslipidemic activity in fasted beagle dog assessed as reduction in free fatty acid level in plasma at 3 mg/kg, po after 1 hr relative to vehicle-treated control; type: functional, Canis lupus familiaris; parameters: scale not given: the % may be the effect or the level left
[17] = tested on: Canis familiaris; assay: Toxicity in fasted beagle dog assessed as flushing at 1 to 10 mg/kg, po; type: organism-based, Canis lupus familiaris; parameters: dose 1-10 mg/kg, route oral; settings: in vivo
[18] = tested on: Canis familiaris; assay: Toxicity in fasted beagle dog assessed as behavioural changes at 30 mg/kg, po relative to control; type: organism-based, Canis lupus familiaris; parameters: dose 30 mg/kg, route oral; settings: in vivo
[19] = target: Voltage-gated inwardly rectifying potassium channel KCNH2 (Homo sapiens, UniProt Q12809); assay: Inhibition of human ERG up to 10 uM by patch clamp assay
Chain of Voltage-gated inwardly rectifying potassium channel KCNH2 (Q12809 whole entry): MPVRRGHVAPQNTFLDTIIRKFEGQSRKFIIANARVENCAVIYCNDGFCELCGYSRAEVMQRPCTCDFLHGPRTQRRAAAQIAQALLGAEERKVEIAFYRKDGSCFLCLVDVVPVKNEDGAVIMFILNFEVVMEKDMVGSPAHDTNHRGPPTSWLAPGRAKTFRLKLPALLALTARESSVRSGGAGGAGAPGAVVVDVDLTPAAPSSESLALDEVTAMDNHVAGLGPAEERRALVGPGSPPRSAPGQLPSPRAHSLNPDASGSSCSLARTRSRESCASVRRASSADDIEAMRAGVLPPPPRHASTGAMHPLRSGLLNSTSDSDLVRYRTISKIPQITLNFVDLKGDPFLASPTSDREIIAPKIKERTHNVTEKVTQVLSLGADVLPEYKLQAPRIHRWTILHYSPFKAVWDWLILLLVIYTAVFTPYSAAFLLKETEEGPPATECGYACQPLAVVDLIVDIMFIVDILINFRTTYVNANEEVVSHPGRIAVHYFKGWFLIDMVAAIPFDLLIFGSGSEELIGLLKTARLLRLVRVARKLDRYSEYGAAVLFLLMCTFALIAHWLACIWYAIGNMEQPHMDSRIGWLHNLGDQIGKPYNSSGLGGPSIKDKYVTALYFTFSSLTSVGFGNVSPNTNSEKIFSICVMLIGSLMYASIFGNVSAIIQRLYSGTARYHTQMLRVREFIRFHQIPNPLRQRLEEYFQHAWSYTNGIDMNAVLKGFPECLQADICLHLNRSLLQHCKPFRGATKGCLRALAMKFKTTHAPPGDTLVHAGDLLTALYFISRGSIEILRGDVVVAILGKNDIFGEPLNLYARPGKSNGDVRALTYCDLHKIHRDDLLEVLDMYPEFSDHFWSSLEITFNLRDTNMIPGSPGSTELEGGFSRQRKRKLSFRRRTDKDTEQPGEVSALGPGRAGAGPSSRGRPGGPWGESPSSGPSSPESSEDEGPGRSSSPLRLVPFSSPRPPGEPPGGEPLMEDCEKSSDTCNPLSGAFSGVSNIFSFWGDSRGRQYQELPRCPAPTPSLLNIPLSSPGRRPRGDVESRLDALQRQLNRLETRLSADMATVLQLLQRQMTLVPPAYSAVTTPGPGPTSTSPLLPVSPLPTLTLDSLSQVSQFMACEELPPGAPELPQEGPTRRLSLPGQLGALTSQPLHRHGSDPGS

[20] = Oral bioavailability in beagle dog at 1 mg/kg; type: ADME, organism-based, Canis lupus familiaris; settings: in vivo
[21] = tested on: Liver microsomes; assay: Intrinsic clearance in human liver microsomes assessed per 10^6 cells; type: ADME, Microsome
[22] = AUC (0 to 24 hrs) in beagle dog at 1 mg/kg, po; type: ADME, organism-based, Canis lupus familiaris; parameters: time < 24 hr, dose 1 mg/kg, route oral; settings: plasma
[23] = tested on: Mus musculus; assay: Nephrotoxicity in CD1 mouse at 100 mg/kg, po administered qd for 5 days measured 2 hrs post-last dose; type: toxicity, organism-based; parameters: dose 100 mg/kg, route oral; settings: in vivo
[24] = Oral bioavailability in Sprague-Dawley rat at 5 mg/kg; type: ADME, organism-based; settings: in vivo
[25] = tested on: Rattus norvegicus; assay: Antidyslipidemic activity in po dosed fasted Sprague-Dawley rat assessed as reduction in triglyceride level in plasma; type: functional
[26] = tested on: Rattus norvegicus; assay: Antidyslipidemic activity in fasted Sprague-Dawley rat assessed as reduction in free fatty acid level in plasma at 3 mg/kg, po after 2 hrs; type: functional, organism-based; parameters: dose 3 mg/kg
[27] = tested on: Liver; assay: Intrinsic clearance in mouse liver microsomes assessed per 10^6 cells; type: ADME, Microsome
[28] = tested on: Canis familiaris; assay: Toxicity in fasted beagle dog assessed as change in skin colour at 1 to 10 mg/kg, po; type: organism-based, Canis lupus familiaris; parameters: dose 1-10 mg/kg, route oral; settings: in vivo
[29] = tested on: Liver; assay: Intrinsic clearance in dog liver microsomes assessed per 10^6 cells; type: ADME, Canis lupus familiaris, Microsome
[30] = target: T1, Cytochrome P450 1A2 (Homo sapiens, UniProt P05177); assay: Inhibition of human CYP1A2; type: ADME
T1 sequence (P05177 whole entry): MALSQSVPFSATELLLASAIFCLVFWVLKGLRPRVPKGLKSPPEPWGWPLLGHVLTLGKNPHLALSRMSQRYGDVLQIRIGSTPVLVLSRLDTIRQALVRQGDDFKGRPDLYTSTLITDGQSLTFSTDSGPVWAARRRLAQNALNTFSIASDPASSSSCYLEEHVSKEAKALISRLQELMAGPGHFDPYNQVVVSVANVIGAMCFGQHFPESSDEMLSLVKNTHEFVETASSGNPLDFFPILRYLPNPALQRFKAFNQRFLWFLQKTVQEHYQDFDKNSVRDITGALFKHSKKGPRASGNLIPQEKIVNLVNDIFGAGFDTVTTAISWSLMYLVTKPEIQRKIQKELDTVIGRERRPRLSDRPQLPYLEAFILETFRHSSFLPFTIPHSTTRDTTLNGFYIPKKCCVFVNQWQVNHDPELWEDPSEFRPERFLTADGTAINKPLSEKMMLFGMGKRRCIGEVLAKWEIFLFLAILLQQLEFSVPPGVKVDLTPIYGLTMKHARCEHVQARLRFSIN

[31] = tested on: Rattus norvegicus; assay: Antidyslipidemic activity in fasted Sprague-Dawley rat assessed as reduction in free fatty acid level in plasma at 3 mg/kg, po up to 2 hrs; type: functional, organism-based; parameters: dose 3 mg/kg
[32] = target: Cytochrome P450 2C9 (Homo sapiens, UniProt P11712); assay: Inhibition of human CYP2C9; type: ADME
Chain of Cytochrome P450 2C9 (P11712 whole entry): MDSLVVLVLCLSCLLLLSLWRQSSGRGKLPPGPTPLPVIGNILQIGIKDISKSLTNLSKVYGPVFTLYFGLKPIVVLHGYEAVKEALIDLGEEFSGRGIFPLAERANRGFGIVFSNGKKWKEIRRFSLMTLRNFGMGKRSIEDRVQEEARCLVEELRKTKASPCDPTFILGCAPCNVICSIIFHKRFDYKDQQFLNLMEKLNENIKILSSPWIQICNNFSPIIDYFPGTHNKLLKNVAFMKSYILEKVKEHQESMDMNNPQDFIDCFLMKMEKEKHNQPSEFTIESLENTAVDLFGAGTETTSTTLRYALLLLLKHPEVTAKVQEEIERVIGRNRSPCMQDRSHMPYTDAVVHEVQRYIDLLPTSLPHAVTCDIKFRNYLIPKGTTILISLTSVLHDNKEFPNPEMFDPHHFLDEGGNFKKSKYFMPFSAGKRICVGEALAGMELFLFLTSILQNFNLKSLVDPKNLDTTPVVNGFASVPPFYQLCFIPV

[33] = tested on: Liver microsomes; assay: Intrinsic clearance in rat liver microsomes assessed per 10^6 cells; type: ADME, Microsome
[34] = tested on: Rattus norvegicus; assay: Antidyslipidemic activity in po dosed fasted Sprague-Dawley rat assessed as reduction in free fatty acid level in plasma; type: functional; settings: for minimal effective dose: read-out: MED
[35] = target: Cytochrome P450 3A4 (Homo sapiens, UniProt P08684); assay: Inhibition of human CYP3A4; type: ADME
Chain of Cytochrome P450 3A4 (P08684 whole entry): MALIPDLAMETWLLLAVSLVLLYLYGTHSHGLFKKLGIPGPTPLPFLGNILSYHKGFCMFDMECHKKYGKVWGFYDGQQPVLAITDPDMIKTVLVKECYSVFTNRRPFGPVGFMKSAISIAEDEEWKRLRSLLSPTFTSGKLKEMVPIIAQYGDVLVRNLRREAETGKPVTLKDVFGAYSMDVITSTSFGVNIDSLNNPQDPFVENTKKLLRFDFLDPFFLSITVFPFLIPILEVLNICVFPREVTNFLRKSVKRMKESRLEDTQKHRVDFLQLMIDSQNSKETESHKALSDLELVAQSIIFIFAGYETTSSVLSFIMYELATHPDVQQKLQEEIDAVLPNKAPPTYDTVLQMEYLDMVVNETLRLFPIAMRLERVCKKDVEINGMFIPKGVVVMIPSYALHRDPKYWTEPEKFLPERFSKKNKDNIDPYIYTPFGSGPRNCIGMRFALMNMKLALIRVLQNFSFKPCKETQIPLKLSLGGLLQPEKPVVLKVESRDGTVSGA

[36] = tested on: Canis familiaris; assay: Toxicity in fasted beagle dog assessed as behavioural changes at 1 to 10 mg/kg, po; type: organism-based, Canis lupus familiaris; parameters: dose 1-10 mg/kg, route oral; settings: in vivo
[37] = AUC (0 to 24 hrs) in Sprague-Dawley rat at 5 mg/kg, po; type: ADME, organism-based; parameters: time < 24 hr, dose 5 mg/kg, route oral; settings: plasma
[38] = tested on: Canis familiaris; assay: Toxicity in fasted beagle dog assessed as increase in cutaneous blood flow at 30 mg/kg, po relative to control; type: organism-based, Canis lupus familiaris; parameters: dose 30 mg/kg, route oral; settings: in vivo
[39] = tested on: Canis familiaris; assay: Antidyslipidemic activity in fasted beagle dog assessed as reduction in free fatty acid level in plasma at 1 mg/kg, po after 1 hr relative to vehicle-treated control; type: functional, Canis lupus familiaris; parameters: scale not given: the % may be the effect or the level left
[40] = target: Cytochrome P450 2D6 (Homo sapiens, UniProt P10635); assay: Inhibition of human CYP2D6; type: ADME
Chain of Cytochrome P450 2D6 (P10635 whole entry): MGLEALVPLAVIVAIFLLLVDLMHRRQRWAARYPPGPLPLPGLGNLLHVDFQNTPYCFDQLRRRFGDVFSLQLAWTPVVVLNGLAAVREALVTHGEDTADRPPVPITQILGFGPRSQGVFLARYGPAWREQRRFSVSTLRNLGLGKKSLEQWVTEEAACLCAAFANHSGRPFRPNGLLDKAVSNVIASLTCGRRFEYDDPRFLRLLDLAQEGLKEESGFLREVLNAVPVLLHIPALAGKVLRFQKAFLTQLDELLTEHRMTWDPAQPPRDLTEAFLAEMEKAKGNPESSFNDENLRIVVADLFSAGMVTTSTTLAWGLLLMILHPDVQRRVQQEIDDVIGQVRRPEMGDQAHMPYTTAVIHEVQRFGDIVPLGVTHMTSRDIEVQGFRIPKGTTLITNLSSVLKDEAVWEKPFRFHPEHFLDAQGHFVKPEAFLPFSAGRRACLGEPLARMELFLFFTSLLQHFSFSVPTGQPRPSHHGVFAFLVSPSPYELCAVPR

[41] = tested on: Canis familiaris; assay: Antidyslipidemic activity in fasted beagle dog assessed as reduction in free fatty acid level in plasma at 2 mg/kg, po after 1 hr relative to vehicle-treated control; type: functional, Canis lupus familiaris; parameters: scale not given: the % may be the effect or the level left
[42] = tested on: Rattus norvegicus; assay: Antidyslipidemic activity in fasted Sprague-Dawley rat assessed as reduction in triglyceride level in plasma at 3 mg/kg, po after 1 hr relative to vehicle-treated control; type: functional; parameters: scale not given: the % may be the effect or the level left
[43] = tested on: Rattus norvegicus; assay: Antidyslipidemic activity in fasted Sprague-Dawley rat assessed as reduction in free fatty acid level in plasma at 3 mg/kg, po after 1 hr relative to vehicle-treated control; type: functional; parameters: scale not given: the % may be the effect or the level left

Compound: CCCCc1cc(=O)oc2[nH]c(=O)[nH]c(=O)c12
Activity [1]: 29% | Activity [2]: 90% | Activity [3]: Toxic | EC50 [4]: 190 nM | Activity [5]: Non-toxic | Activity [6]: Non-toxic | EC50 [7]: 16 nM | Activity [8]: Toxic | Activity [9]: 40% | EC50 [10]: 8 nM | Activity [11]: Toxic | Activity [12]: Dose-dependent effect | EC50 [13]: 12 nM

Compound: O=C(O)c1cccnc1 [NIACIN]
EC50 [4]: > 10000 nM | minimal effective dose [34]: 10 mg/kg | EC50 [7]: 31 nM | Activity [16]: 38%

Compound: O=c1[nH]c(=O)c2c(CCCC3CC3)cc(=O)oc2[nH]1
Activity [1]: 58% | EC50 [4]: 140 nM | Activity [5]: Non-toxic | Activity [6]: Non-toxic | EC50 [7]: 1 nM | Activity [8]: Toxic | Activity [9]: 49% | EC50 [10]: 2 nM | Activity [11]: Toxic | Activity [41]: 80%

Compound: CC(C)CCc1cc(=O)oc2[nH]c(=O)[nH]c(=O)c12
EC50 [4]: 1300 nM | Activity [42]: 16% | Activity [43]: 15%

These reach a lower EC50 [4]. Values come first.

EC50 [4]: 59 nM | EC50 [10]: 2 nM | EC50 [13]: 5 nM
Compound: O=c1[nH]c(=O)c2c(CCCC(F)F)cc(=O)oc2[nH]1
Activity [14]: Toxic | Activity [15]: inactive | Activity [9]: 59% | Activity [16]: 80%

bioavailability [20]: 40% | CLH [21]: 1.6 µL/min | AUC(0-t) at 24 h [22]: 7.2 µM·h | bioavailability [24]: 76% | CLH [27]: 8.7 µL/min | CLH [29]: < 1 µL/min | IC50 [30]: > 50 µM | IC50 [32]: > 50 µM | CLH [33]: 10 µL/min | EC50 [4]: 96 nM | IC50 [35]: > 50 µM | EC50 [7]: 5 nM | AUC(0-t) at 24 h [37]: 7.6 µM·h | IC50 [40]: > 50 µM | EC50 [10]: 8 nM | EC50 [13]: 6 nM
Compound: CC1(CCCc2cc(=O)oc3[nH]c(=O)[nH]c(=O)c23)CC1 [SCH-900271]
Activity [17]: Non-toxic | Activity [18]: Non-toxic | inhibition (INH) [19]: Not Active | Activity [1]: 53% | Activity [23]: Non-toxic | Activity [25]: Dose-dependent effect | ED50 [25]: 0.5 mg/kg | minimal effective dose ([25]; read-out: MED): 3 mg/kg | Activity [26]: inactive | Activity [28]: Non-toxic | Activity [31]: Active | Activity [34]: Dose-dependent effect | ED50 [34]: 0.5 mg/kg | minimal effective dose [34]: 3 mg/kg | Activity [36]: Non-toxic | fold change (FC) [38]: 5 | Activity [9]: 53% | Activity [39]: 50%

EC50 [4]: 67 nM | EC50 [10]: 5 nM | EC50 [13]: 4 nM
Compound: O=c1[nH]c(=O)c2c(CCC3CCC3)cc(=O)oc2[nH]1
Activity [1]: 50% | Activity [5]: Non-toxic | Activity [6]: Non-toxic | Activity [8]: Toxic | Activity [9]: 31% | Activity [11]: Toxic
